Legend:
[1] = biological target: T1, Serine/threonine-protein kinase Chk1 (Homo sapiens, UniProt O14757); experiment: Inhibition of full-length recombinant human His-tagged CHEK1 expressed in baculovirus expression system by Z'-LYTE assay
T1 sequence (O14757 whole entry): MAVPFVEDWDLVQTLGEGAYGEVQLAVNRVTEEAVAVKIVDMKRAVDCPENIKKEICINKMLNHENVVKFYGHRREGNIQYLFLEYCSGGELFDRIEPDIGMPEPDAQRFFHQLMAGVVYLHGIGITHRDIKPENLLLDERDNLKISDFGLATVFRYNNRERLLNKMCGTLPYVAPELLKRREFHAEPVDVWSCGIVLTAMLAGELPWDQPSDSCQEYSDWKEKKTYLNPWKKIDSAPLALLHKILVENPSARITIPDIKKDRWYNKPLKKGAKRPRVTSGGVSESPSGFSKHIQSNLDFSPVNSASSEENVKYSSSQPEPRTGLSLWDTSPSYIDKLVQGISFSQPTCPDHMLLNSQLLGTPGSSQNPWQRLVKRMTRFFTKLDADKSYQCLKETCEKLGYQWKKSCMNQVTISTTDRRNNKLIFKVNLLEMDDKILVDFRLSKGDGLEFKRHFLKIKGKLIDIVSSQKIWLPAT

[2] = biological target: T2, Calcium/calmodulin-dependent protein kinase type IV (Homo sapiens, UniProt Q16566); experiment: Inhibition of full-length recombinant human GST-tagged CAMK4 expressed in Escherichia coli by Z'-LYTE assay
T2 sequence (Q16566 whole entry): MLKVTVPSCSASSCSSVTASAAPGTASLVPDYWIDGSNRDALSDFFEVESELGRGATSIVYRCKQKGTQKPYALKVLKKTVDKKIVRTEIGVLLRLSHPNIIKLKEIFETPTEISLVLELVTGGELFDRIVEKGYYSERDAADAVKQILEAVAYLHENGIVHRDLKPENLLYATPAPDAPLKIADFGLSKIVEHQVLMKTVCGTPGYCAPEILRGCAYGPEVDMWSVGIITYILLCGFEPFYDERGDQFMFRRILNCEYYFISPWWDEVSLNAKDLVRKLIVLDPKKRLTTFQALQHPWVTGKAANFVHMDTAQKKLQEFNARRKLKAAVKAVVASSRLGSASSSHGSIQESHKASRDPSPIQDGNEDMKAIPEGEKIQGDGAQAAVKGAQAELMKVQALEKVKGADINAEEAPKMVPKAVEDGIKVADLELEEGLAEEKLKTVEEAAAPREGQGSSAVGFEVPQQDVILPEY

[3] = biological target: T3, Inhibitor of nuclear factor kappa-B kinase subunit epsilon (Homo sapiens, UniProt Q14164); experiment: Inhibition of full-length recombinant human GST-tagged IKK-epsilon expressed in baculovirus expression system by Z'-LYTE assay
T3 sequence (Q14164 whole entry): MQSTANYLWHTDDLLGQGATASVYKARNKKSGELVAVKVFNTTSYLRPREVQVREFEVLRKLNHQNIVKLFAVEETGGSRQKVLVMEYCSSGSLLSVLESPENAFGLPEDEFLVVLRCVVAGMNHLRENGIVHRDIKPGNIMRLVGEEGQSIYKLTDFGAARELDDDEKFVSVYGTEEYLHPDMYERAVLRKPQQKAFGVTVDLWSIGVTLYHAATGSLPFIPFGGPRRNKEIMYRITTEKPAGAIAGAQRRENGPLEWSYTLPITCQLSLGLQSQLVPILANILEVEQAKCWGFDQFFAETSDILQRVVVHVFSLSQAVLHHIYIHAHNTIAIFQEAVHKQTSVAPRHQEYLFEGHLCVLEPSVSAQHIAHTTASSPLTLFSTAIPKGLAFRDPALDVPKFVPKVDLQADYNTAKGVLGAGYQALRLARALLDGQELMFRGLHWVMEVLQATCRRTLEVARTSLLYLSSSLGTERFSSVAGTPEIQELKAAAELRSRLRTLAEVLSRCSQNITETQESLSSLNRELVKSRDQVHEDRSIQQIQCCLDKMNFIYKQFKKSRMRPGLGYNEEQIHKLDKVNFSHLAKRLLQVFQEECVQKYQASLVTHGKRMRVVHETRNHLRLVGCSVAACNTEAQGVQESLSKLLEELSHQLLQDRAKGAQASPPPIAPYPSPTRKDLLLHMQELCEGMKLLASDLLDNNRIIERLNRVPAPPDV

[4] = biological target: T4, Serine/threonine-protein kinase TAO2 (Homo sapiens, UniProt Q9UL54); experiment: Inhibition of recombinant human GST-tagged TAOK2 catalytic domain expressed in baculovirus expression system by Z'-LYTE assay
T4 sequence (Q9UL54 whole entry): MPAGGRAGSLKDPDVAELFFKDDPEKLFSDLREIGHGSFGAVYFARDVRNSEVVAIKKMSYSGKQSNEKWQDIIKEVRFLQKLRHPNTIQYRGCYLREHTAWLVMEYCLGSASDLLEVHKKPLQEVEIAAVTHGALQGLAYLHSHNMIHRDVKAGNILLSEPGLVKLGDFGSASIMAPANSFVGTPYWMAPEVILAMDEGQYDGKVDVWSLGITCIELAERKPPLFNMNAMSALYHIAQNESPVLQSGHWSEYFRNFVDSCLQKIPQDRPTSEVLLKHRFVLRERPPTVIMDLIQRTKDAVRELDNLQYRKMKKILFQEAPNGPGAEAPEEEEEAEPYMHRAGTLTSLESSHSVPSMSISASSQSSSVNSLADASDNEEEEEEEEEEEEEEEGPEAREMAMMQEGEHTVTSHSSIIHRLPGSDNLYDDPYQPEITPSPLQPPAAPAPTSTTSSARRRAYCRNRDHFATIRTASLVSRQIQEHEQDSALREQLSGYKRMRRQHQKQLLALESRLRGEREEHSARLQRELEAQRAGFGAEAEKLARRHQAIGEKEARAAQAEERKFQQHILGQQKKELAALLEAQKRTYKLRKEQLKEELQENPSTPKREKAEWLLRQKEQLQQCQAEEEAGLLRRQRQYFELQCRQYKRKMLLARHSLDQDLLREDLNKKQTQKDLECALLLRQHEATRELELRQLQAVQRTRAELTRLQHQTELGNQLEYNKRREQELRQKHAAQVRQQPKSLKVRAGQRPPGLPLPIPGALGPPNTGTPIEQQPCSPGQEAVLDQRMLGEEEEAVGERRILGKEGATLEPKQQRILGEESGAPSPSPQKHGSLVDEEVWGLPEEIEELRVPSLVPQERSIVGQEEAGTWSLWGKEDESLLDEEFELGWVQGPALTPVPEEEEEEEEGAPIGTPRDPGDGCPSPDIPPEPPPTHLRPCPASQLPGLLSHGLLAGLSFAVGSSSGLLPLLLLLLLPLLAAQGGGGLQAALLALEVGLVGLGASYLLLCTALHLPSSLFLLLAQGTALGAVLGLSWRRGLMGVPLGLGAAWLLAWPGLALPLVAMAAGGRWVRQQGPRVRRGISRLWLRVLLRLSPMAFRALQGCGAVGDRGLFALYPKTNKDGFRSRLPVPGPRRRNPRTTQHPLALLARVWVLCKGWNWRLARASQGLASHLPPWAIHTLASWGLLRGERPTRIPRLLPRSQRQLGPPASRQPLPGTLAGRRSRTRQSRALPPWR

| Structure (SMILES) | IC50 [1] [nM] | IC50 [2] [nM] | IC50 [3] [nM] | IC50 [4] [nM] |
| --- | --- | --- | --- | --- |
| Cn1cc(-c2cnc3c(-c4csc(C(=O)NCC(F)(F)F)c4)cnn3c2)cn1 | 190 | > 100000 | < 10 | 25000 |
| Cc1sc(C(=O)N[C@@H]2[C@H](N)CCCC2(F)F)cc1-c1cnn2cc(Cl)cnc12 | 200 | 29000 | 48 | 11000 |
| O=C(NCC(F)(F)F)c1cc(-c2cnn3cc(-c4ccc(OCCN5CCCCC5)cc4)cnc23)cs1 | 57 | 55000 | < 10 | 2700 |
| Cn1cc(-c2cnc3c(-c4csc(C(=O)N[C@@H]5CCCC[C@@H]5N)c4)cnn3c2)cn1 (racemic) | 2.2 | > 10000 | 7.1 | 420 |

From ChEMBL document CHEMBL4477252, “Optimization of microtubule affinity regulating kinase (MARK) inhibitors with improved physical properties” (Bioorg Med Chem Lett, 2016)
